Earlier results on one compound are cited in US6503482B1, “Non-chlorofluorocarbon aerosol formulations” (Schering Corporation, priority 1993, dated 2003).

Where two headings read alike, the source gives them in different places.

The conditions of this data set: absolute pressure.

Consider `FCC(F)(F)F` [HFC 134a, 1,1,1,2 tetrafluoroethane], for which the vapor pressure is, setting by setting: (same value in psia) 84.7 psia; (stated too high for use in metered dose inhalators) 5.84×10^5 newton/meter^2 absolute.
